From US8753838B2, “Method for producing alcohol using bioethanol waste fermented solution” (Korea Institute of Science and Technology, priority 2010, dated 2014)
Entries after “also recorded” stand apart in the source; their conditions may differ.

How the values were obtained:
[1] = test system: Clostridium pasteurianum (DSM 525); test: Effect of lactic acid, acetic acid and ethanol on growth and butanol production of Clostridium pasteurianum in glycerol medium (Example 1); format: cell-based; details: for inhibition of the growth of Clostridium pasteurianum (OD600): added to the medium up to 10 g/L, pH 6.5, 37° C.
Protocol: The butanol-producing bacterium Clostridium pasteurianum (DSM 525) was acquired from the DSMZ (Germany). The medium used for experiment was prepared with primarily distilled water (1 L) by adding the following ingredients: glycerol (30 g), K2HPO4 (0.5 g), KH2PO4 (0.5 g), MnSO4.H2O (0.01 g), MgSO4.7H2O (0.2 g), FeSO4.7H2O (0.01 g), NaCl (0.01 g), yeast extract (1 g), (NH4)2SO4 (2 g), MES (19.52 g), biotin (0.00001 g), thiamine (0.001 g) and p-aminobenzoic acid (0.001 g).
After adding lactic acid (C3H6O3, 0-14.6 g/L), acetic acid (C2H4O2, 0-10 g/L) or ethanol (C2H60, 0-20 g/L) to the medium, the pH was adjusted to 6.5 using potassium hydroxide (KOH) or sodium hydroxide (NaOH). After placing the medium (50 mL) in a 125-mL serum bottle and removing oxygen by blowing in argon gas, the bottle was sealed with a butyl rubber stopper and an aluminum cap. After sterilizing under high pressure and inoculating Clostridium pasteurianum cultured for 1-2 days at 5% (v/v), the bacterium was cultured at 37° C. while shaking at 130 rpm.
The cell growth was determined by measuring absorbance (optical density) at 600 nm (OD600).

[2] = test system: Clostridium pasteurianum (C. pasteurianum DSM 525); test: Alkaline agent for pH control of medium: growth and butanol production of Clostridium pasteurianum (Example 4); format: cell-based; details: for cell growth (order of alkaline agents): medium of Example 1 with 10 g/L lactic acid, pH adjusted to 6.5 using each alkaline agent
From the text: In the experiment for evaluating the effect of lactic acid, acetic acid and ethanol on the growth of Clostridium pasteurianum (C. pasteurianum DSM 525), sodium hydroxide (NaOH) was used to adjust the pH of the medium. Since the ethanol waste fermented solution has a pH of 4-5, the pH needs to be controlled using an alkaline agent in order to produce butanol using the Clostridium pasteurianum (C. pasteurianum DSM 525). In addition to sodium hydroxide, potassium hydroxide (KOH), calcium hydroxide (Ca(OH)2), ammonia water (NH4OH), etc. are available as the alkaline agent. It was investigated whether the growth of Clostridium pasteurianum (C. pasteurianum DSM 525) is affected by the alkaline agents. For this purpose, after adding lactic acid (10 g/L) to the medium of Example 1, pH was adjusted to 6.5 using each alkaline agent.

| Compound | inhibition of the growth of Clostridium pasteurianum (OD600) [1] | cell growth (order of alkaline agents) [2] | further results |
| --- | --- | --- | --- |
| CC(O)C(=O)O (stereo not drawn) [Lactic acid, lactic acid] | did not result in severe inhibition | – | production of butanol ([1]; lactic acid added (10 g/L or less) compared to when not added): improved butanol-producing effect; also recorded: improved production of butanol |
| CC(=O)O [acetic acid] | did not result in severe inhibition | – | – |
| N [ammonia water, ammonia water (NH4OH)] | – | faster in the order of calcium hydroxide, potassium hydroxide, ammonia water and sodium hydroxide | – |
| [Ca+2].[OH-].[OH-] [calcium hydroxide, calcium hydroxide (Ca(OH)2)] | – | faster in the order of calcium hydroxide, potassium hydroxide, ammonia water and sodium hydroxide | – |
| CCO [ethanol] | did not result in severe inhibition | – | – |
| [K+].[OH-] [potassium hydroxide, potassium hydroxide (KOH)] | – | faster in the order of calcium hydroxide, potassium hydroxide, ammonia water and sodium hydroxide | – |
| [Na+].[OH-] [sodium hydroxide, sodium hydroxide (NaOH)] | – | faster in the order of calcium hydroxide, potassium hydroxide, ammonia water and sodium hydroxide | – |
| [Na] [sodium] | – | – | growth of the microorganism ([2]; as compared to potassium): inhibits the growth |
